Reference: PubChem BioAssay AID248 (DTP/NCI, 2004)
Several values for one entry are separate records, joined by “and”; a condition that tells them apart may be missing. Identical values can stand only once. Inconclusive results and toxic doses are left out. Cut-off read from the data, not from the text of the source: active = T/C of 150% or more; inactive = T/C below 125%.

Test system: L1210 leukemia ip in BDF1 mice, survival T/C
Assay: NCI In Vivo Anticancer Drug Screen. Data for tumor model L1210 Leukemia (intraperitoneal) in B6D2F1 (BDF1) mice
Conditions: endpoint: mean survival time, higher = longer survival
Method in brief: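 Mice bearing the transplanted tumor received compound or vehicle. Survival of the treated group was divided by that of the vehicle-treated control group to give the ratio.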

[1] = dose: 100.0 mg/kg/injection, schedule: Q04DX003 (ip), vehicle: saline with Tween-80
[2] = dose: 200.0 mg/kg/injection, schedule: Q04DX003 (ip), vehicle: saline with Tween-80
[3] = dose: 400.0 mg/kg/injection, schedule: Q04DX003 (ip), vehicle: saline with Tween-80
[4] = dose: 100.0 mg/kg/injection, schedule: Q01DX001 (ip), vehicle: carboxymethylcellulose (CMC)
[5] = dose: 100.0 mg/kg/injection, schedule: Q04DX003 (ip), vehicle: Klucel (hydroxypropylcellulose) (HPC)
[6] = dose: 200.0 mg/kg/injection, schedule: Q04DX003 (ip), vehicle: Klucel (hydroxypropylcellulose) (HPC)
[7] = dose: 400.0 mg/kg/injection, schedule: Q04DX003 (ip), vehicle: Klucel (hydroxypropylcellulose) (HPC)
[8] = dose: 50.0 mg/kg/injection, schedule: Q04DX002 (ip), vehicle: Klucel (hydroxypropylcellulose) (HPC)
[9] = dose: 100.0 mg/kg/injection, schedule: Q04DX002 (ip), vehicle: Klucel (hydroxypropylcellulose) (HPC)

Measured: T/C

Cc1ccc(S(=O)(=O)OC2COC3C(OS(=O)(=O)c4ccc(C)cc4)COC23)cc1 (stereo unspecified)
inactive: dose: 100.0 mg/kg/injection, schedule: Q01DX001 (ip), vehicle: saline 93 % of control | dose: 100.0 mg/kg/injection, schedule: Q04DX003 (ip), vehicle: DMSO 103 % of control | dose: 200.0 mg/kg/injection, schedule: Q01DX001 (ip), vehicle: saline 96 % of control | dose: 200.0 mg/kg/injection, schedule: Q04DX003 (ip), vehicle: DMSO 97 % of control | dose: 400.0 mg/kg/injection, schedule: Q01DX001 (ip), vehicle: saline 93 % of control | dose: 400.0 mg/kg/injection, schedule: Q04DX003 (ip), vehicle: DMSO 111 % of control

O=C(CC(O)(C(F)(F)F)C(F)(F)F)c1ccccc1Br
inactive: [1] 97 % of control | [2] 97 % of control | [3] 95 % of control

O=C(O)C1C2C=CC(C2)C1(C(=O)O)c1ccccc1 (stereo unspecified)
inactive: [4] 95 % of control | dose: 100.0 mg/kg/injection, schedule: Q04DX003 (ip), vehicle: carboxymethylcellulose (CMC) 98 % of control | dose: 200.0 mg/kg/injection, schedule: Q01DX001 (ip), vehicle: carboxymethylcellulose (CMC) 95 % of control | dose: 200.0 mg/kg/injection, schedule: Q04DX003 (ip), vehicle: carboxymethylcellulose (CMC) 92 % of control

CC(=O)Nc1ccc(/C=C(\C#N)c2ccc([N+](=O)[O-])cc2)cc1
inactive: dose: 100.0 mg/kg/injection, schedule: Q04DX002 (ip), vehicle: gum acacia 95 % of control | dose: 200.0 mg/kg/injection, schedule: Q04DX002 (ip), vehicle: gum acacia 103 % of control | dose: 400.0 mg/kg/injection, schedule: Q04DX002 (ip), vehicle: gum acacia 95 % of control

O=C(NC1CCCCC1)c1ccc(Cl)cc1
inactive: dose: 100.0 mg/kg/injection, schedule: Q01DX001 (ip), vehicle: Klucel (hydroxypropylcellulose) (HPC) 105 % of control | [5] 94 % of control | dose: 200.0 mg/kg/injection, schedule: Q01DX001 (ip), vehicle: Klucel (hydroxypropylcellulose) (HPC) 89 % of control | [6] 105 % of control | dose: 400.0 mg/kg/injection, schedule: Q01DX001 (ip), vehicle: Klucel (hydroxypropylcellulose) (HPC) 105 % of control | [7] 102 % of control

CN(Cc1ccccc1)/C(N)=N/N
inactive: dose: 37.5 mg/kg/injection, schedule: Q04DX003 (ip), vehicle: saline 94 % of control | dose: 75.0 mg/kg/injection, schedule: Q04DX003 (ip), vehicle: saline 111 % of control | dose: 150.0 mg/kg/injection, schedule: Q04DX003 (ip), vehicle: saline 97 % of control

O=C1C(O)=C(c2ccc(O)cc2)C(=O)C(O)=C1c1ccc(O)cc1
inactive: dose: 25.0 mg/kg/injection, schedule: Q04DX002 (ip), vehicle: Klucel (hydroxypropylcellulose) (HPC) 88 % of control | dose: 25.0 mg/kg/injection, schedule: Q04DX002 (oral), vehicle: saline with Tween-80 105 % of control | [8] 95 % of control | dose: 50.0 mg/kg/injection, schedule: Q04DX002 (oral), vehicle: saline with Tween-80 98 % of control | [9] 103 % of control | dose: 100.0 mg/kg/injection, schedule: Q04DX002 (oral), vehicle: saline with Tween-80 112 % of control

CC(=O)O/N=C1\c2ccccc2-c2ccc([N+](=O)[O-])cc21
inactive: dose: 75.0 mg/kg/injection, schedule: Q01DX009 (ip), vehicle: Klucel (hydroxypropylcellulose) (HPC) 93 % of control | [5] 97 % of control | dose: 150.0 mg/kg/injection, schedule: Q01DX009 (ip), vehicle: Klucel (hydroxypropylcellulose) (HPC) 86 % of control | [6] 95 % of control | dose: 300.0 mg/kg/injection, schedule: Q01DX009 (ip), vehicle: Klucel (hydroxypropylcellulose) (HPC) 86 % of control | [7] 100 % of control

C=CC[Se]c1nc(N)nc2c1ncn2C1OC(CO)C(O)C1O (stereo unspecified)
inactive: dose: 12.5 mg/kg/injection, schedule: Q01DX005 (ip), vehicle: saline 104 % of control | dose: 25.0 mg/kg/injection, schedule: Q01DX005 (ip), vehicle: saline 100 % of control

O=C(O)C1CCCN1CCc1ccccc1 (stereo unspecified)
inactive: dose: 100.0 mg/kg/injection, schedule: Q04DX003 (ip), vehicle: saline 107 % of control | dose: 200.0 mg/kg/injection, schedule: Q04DX003 (ip), vehicle: saline 105 % of control | dose: 400.0 mg/kg/injection, schedule: Q04DX003 (ip), vehicle: saline 97 % of control

O=C(CCl)c1c(O)cc(O)cc1O
inactive: dose: 75.0 mg/kg/injection, schedule: Q01DX001 (ip), vehicle: other 106 % of control | dose: 150.0 mg/kg/injection, schedule: Q01DX001 (ip), vehicle: other 106 % of control | dose: 300.0 mg/kg/injection, schedule: Q01DX001 (ip), vehicle: other 92 % of control

O=S1(=O)Cc2ccccc2-c2ccccc2C1Cl (stereo unspecified)
inactive: [8] 100 % of control | dose: 100.0 mg/kg/injection, schedule: Q01DX009 (ip), vehicle: Klucel (hydroxypropylcellulose) (HPC) 98 % of control | [9] 100 % of control | dose: 200.0 mg/kg/injection, schedule: Q01DX009 (ip), vehicle: Klucel (hydroxypropylcellulose) (HPC) 100 % of control | dose: 200.0 mg/kg/injection, schedule: Q04DX002 (ip), vehicle: Klucel (hydroxypropylcellulose) (HPC) 97 % of control | dose: 400.0 mg/kg/injection, schedule: Q01DX009 (ip), vehicle: Klucel (hydroxypropylcellulose) (HPC) 96 % of control

N#CCCP(CCC#N)CCP(CCC#N)CCC#N
inactive: [1] 96 % of control | [2] 89 % of control | [3] 86 % of control

Nc1nc(N)nc(CCCCCc2nc(N)nc(N)n2)n1
inactive: dose: 50.0 mg/kg/injection, schedule: Q01DX001 (ip), vehicle: carboxymethylcellulose (CMC) 93 % of control | [4] 93 % of control | dose: 400.0 mg/kg/injection, schedule: Q01DX001 (ip), vehicle: carboxymethylcellulose (CMC) 95 % of control

Nc1ccc(OCCNS(=O)(=O)c2ccc(S(=O)(=O)F)cc2)c(Cl)c1
inactive: dose: 25.0 mg/kg/injection, schedule: Q04DX003 (ip), vehicle: Klucel (hydroxypropylcellulose) (HPC) 97 % of control | dose: 50.0 mg/kg/injection, schedule: Q01DX001 (ip), vehicle: saline with Tween-80 91 % of control | dose: 50.0 mg/kg/injection, schedule: Q04DX003 (ip), vehicle: Klucel (hydroxypropylcellulose) (HPC) 97 % of control | dose: 100.0 mg/kg/injection, schedule: Q01DX001 (ip), vehicle: saline with Tween-80 92 % of control | [5] 99 % of control and 105 % of control | dose: 200.0 mg/kg/injection, schedule: Q01DX001 (ip), vehicle: saline with Tween-80 100 % of control

N#CCCN(CCC#N)c1ccccc1
inactive: dose: 100.0 mg/kg/injection, schedule: Q01DX009 (ip), vehicle: saline 94 % of control | dose: 200.0 mg/kg/injection, schedule: Q01DX009 (ip), vehicle: saline 102 % of control | dose: 400.0 mg/kg/injection, schedule: Q01DX009 (ip), vehicle: saline 107 % of control
